Measurements: the NIST ThermoML archive (doi:10.1021/je0502391)
± gives the expanded uncertainty stated by the source.

Settings: 298.15 K; 101.33 kPa; Liquid

Row | SMILES | mass density [kg/m3]
1 | Cc1ccccc1 [toluene] | 862.35 ± 0.24
2 | C=C1CC[C@H]2C[C@@H]1C2(C)C [(1S,5S)-6,6-dimethyl-2-methylenebicyclo[3.1.1]heptane] | 866.84 ± 0.62
3 | CCCCCCCCCCCC [dodecane] | 745.41 ± 0.78
4 | C=C(C)[C@H]1CC=C(C)CC1 [(R)-1-methyl-4-(1-methylethenyl)cyclohexene] | 837.31 ± 1.3
5 | CC1=CC[C@H]2C[C@@H]1C2(C)C [(S)-2-pinene] | 853.88 ± 0.63
6 | CO [methanol] | 786.62 ± 0.31
